Data published in patent US20240294508A1, “RIP1 MODULATORS INCLUDING AZETIDINE CYCLIC UREAS, PREPARATIONS, AND USES THEREOF” (SIRONAX LTD., priority 2021, published 2024).

System: HT-29 cells
Test: HT29 cells 0FBS assay in vitro: TNF-α/SMAC mimetic/zVAD-FMK induced necroptosis, CellTiter-Glo cell viability (RIP1 inhibitory activity)
Format: cell-based
Details: Homo sapiens, FBS free medium, TNF-α (10 ng/ml) + SMAC mimetic (6 uM) + zVAD-FMK (10 μM), 20 hours, geometric mean EC50
In short: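 Luminescent ATP read-out (CellTiter-Glo) gave viability of HT-29 cells after 20 h at 37° C in serum-free medium containing compound and a necroptosis cocktail of 10 ng/ml TNF-α, 6 uM SMAC mimetic and 10 μM zVAD-FMK. EC50s are geometric means of 10-point curves run in duplicate.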

First: Cc1nc(C2CC=NN2C(=O)N2CC(Oc3cc(-c4c(C)cnn4C)ncc3F)C2)co1 (stereo not drawn) [Compound 90, (3-((2-(1,4-dimethyl-1H-pyrazol-5-yl)-5-fluoropyridin-4-yl)oxy)azetidin-1-yl)(5-(2-methyloxazol-4-yl)-4,5-dihydro-1H-pyrazol-1-yl)methanone]
Second: Cc1cnc([C@H]2CC=NN2C(=O)N2CC(Oc3cc(-c4c(C)cnn4C)ncc3F)C2)s1 [Compound 137, (R)-(3-((2-(1,4-dimethyl-1H-pyrazol-5-yl)-5-fluoropyridin-4-yl)oxy)azetidin-1-yl)(5-(5-methylthiazol-2-yl)-4,5-dihydro-1H-pyrazol-1-yl)methanone]
The EC50 of the first is lower: 0.1 to 100 nM for the first, 1000 to 10000 nM for the second.

`Cc1nc(C#N)c(C)n1-c1cc(OC2CN(C(=O)N3N=CC[C@H]3c3cncc(F)c3)C2)c(F)cn1` [Compound 68, (S)-1-(5-fluoro-4-((1-(5-(5-fluoropyridin-3-yl)-4,5-dihydro-1H-pyrazole-1-carbonyl)azetidin-3-yl)oxy)pyridin-2-yl)-2,5-dimethyl-1H-imidazole-4-carbonitrile] and `Cc1nn(-c2cc(OC3CN(C(=O)N4N=CC[C@H]4c4cncc(F)c4)C3)c(F)cn2)c(C)c1C(N)=O` [Compound 63, (S)-1-(5-fluoro-4-((1-(5-(5-fluoropyridin-3-yl)-4,5-dihydro-1H-pyrazole-1-carbonyl)azetidin-3-yl)oxy)pyridin-2-yl)-3,5-dimethyl-1H-pyrazole-4-carboxamide] fall in the same range of EC50: 100 to 1000 nM for the first, 100 to 1000 nM for the second.

`Cc1c(C(N)=O)nn(C)c1-c1ccc(F)c(OC2CN(C(=O)N3N=CC[C@H]3c3cc(F)cc(C#N)c3)C2)n1` [Compound 59, (S)-5-(6-((1-(5-(3-cyano-5-fluorophenyl)-4,5-dihydro-1H-pyrazole-1-carbonyl)azetidin-3-yl)oxy)-5-fluoropyridin-2-yl)-1,4-dimethyl-1H-pyrazole-3-carboxamide] and `Cn1ccnc1-c1ccc(F)c(OC2CN(C(=O)N3N=CC[C@H]3c3cc(F)cc(C#N)c3)C2)n1` [Compound 13, (S)-3-fluoro-5-(1-(3-((3-fluoro-6-(1-methyl-1H-imidazol-2-yl)pyridin-2-yl)oxy)azetidine-1-carbonyl)-4,5-dihydro-1H-pyrazol-5-yl)benzonitrile] fall in the same range of EC50: 0.1 to 100 nM for the first, 0.1 to 100 nM for the second.

`Cc1cc(F)cc([C@@H]2CC=NN2C(=O)N2CC(Oc3cc(-n4nc(C)c(C(=O)O)c4C)ncc3F)C2)c1` [Compound 142, (S)-1-(5-fluoro-4-((1-(5-(3-fluoro-5-methylphenyl)-4,5-dihydro-1H-pyrazole-1-carbonyl)azetidin-3-yl)oxy)pyridin-2-yl)-3,5-dimethyl-1H-pyrazole-4-carboxylic acid] and `Cc1nn(-c2cc(OC3CN(C(=O)N4N=CC[C@H]4c4cc(F)cc(F)c4F)C3)c(F)cn2)c(C)c1C(=O)O` [Compound 104, (S)-1-(5-fluoro-4-((1-(5-(2,3,5-trifluorophenyl)-4,5-dihydro-1H-pyrazole-1-carbonyl)azetidin-3-yl)oxy)pyridin-2-yl)-3,5-dimethyl-1H-pyrazole-4-carboxylic acid] fall in the same range of EC50: 0.1 to 100 nM for the first, 0.1 to 100 nM for the second.

`Cc1cnn(C)c1-c1ncc(F)c(OC2CN(C(=O)N3N=CC[C@H]3c3cc(F)cc(C#N)c3)C2)n1` [Compound 25, (S)-3-(1-(3-((2-(1,4-dimethyl-1H-pyrazol-5-yl)-5-fluoropyrimidin-4-yl)oxy)azetidine-1-carbonyl)-4,5-dihydro-1H-pyrazol-5-yl)-5-fluorobenzonitrile] and `Cc1noc(C)c1-c1ncc(F)c(OC2CN(C(=O)N3N=CC[C@H]3c3cc(F)cc(C#N)c3)C2)n1` [Compound 3, (S)-3-(1-(3-((2-(3,5-dimethylisoxazol-4-yl)-5-fluoropyrimidin-4-yl)oxy)azetidine-1-carbonyl)-4,5-dihydro-1H-pyrazol-5-yl)-5-fluorobenzonitrile] fall in the same range of EC50: 0.1 to 100 nM for the first, 0.1 to 100 nM for the second.

Compared with `Cc1cnn(C)c1-c1ccc(F)c(OC2CN(C(=O)N3N=CC[C@H]3c3cc(F)cc(C#N)c3)C2)c1` [Compound 60, (S)-3-(1-(3-(5-(1,4-dimethyl-1H-pyrazol-5-yl)-2-fluorophenoxy)azetidine-1-carbonyl)-4,5-dihydro-1H-pyrazol-5-yl)-5-fluorobenzonitrile], `Cn1ncc(C(N)=O)c1-c1cc(OC2CN(C(=O)N3N=CC[C@H]3c3cc(F)cc(C#N)c3)C2)c(F)cn1` [Compound 10, (S)-5-(4-((1-(5-(3-cyano-5-fluorophenyl)-4,5-dihydro-1H-pyrazole-1-carbonyl)azetidin-3-yl)oxy)-5-fluoropyridin-2-yl)-1-methyl-1H-pyrazole-4-carboxamide] is higher in EC50: 0.1 to 100 nM for the first, 100 to 1000 nM for the second. The first is the more potent here.

`Cc1cnn(C)c1-c1cc(OC2CN(C(=O)N3N=CC[C@H]3c3cncc(F)c3)C2)c(F)cn1` [Compound 30, (S)-(3-((2-(1,4-dimethyl-1H-pyrazol-5-yl)-5-fluoropyridin-4-yl)oxy)azetidin-1-yl)(5-(5-fluoropyridin-3-yl)-4,5-dihydro-1H-pyrazol-1-yl)methanone] and `Cc1cncc(C2CC=NN2C(=O)N2CC(Oc3cc(-c4c(C)cnn4C)ncc3F)C2)c1` (stereo not drawn) [Compound 101, (3-((2-(1,4-dimethyl-1H-pyrazol-5-yl)-5-fluoropyridin-4-yl)oxy)azetidin-1-yl)(5-(5-methylpyridin-3-yl)-4,5-dihydro-1H-pyrazol-1-yl)methanone] fall in the same range of EC50: 0.1 to 100 nM for the first, 0.1 to 100 nM for the second.

`Cc1ncc([C@@H]2CC=NN2C(=O)N2CC(Oc3cc(-c4c(C)cnn4C)ncc3F)C2)s1` [Compound 108, (S)-(3-((2-(1,4-dimethyl-1H-pyrazol-5-yl)-5-fluoropyridin-4-yl)oxy)azetidin-1-yl)(5-(2-methylthiazol-5-yl)-4,5-dihydro-1H-pyrazol-1-yl)methanone] and `Cc1ncc(C2CC=NN2C(=O)N2CC(Oc3cc(-c4c(C)cnn4C)ncc3F)C2)s1` (stereo not drawn) [Compound 88, (3-((2-(1,4-dimethyl-1H-pyrazol-5-yl)-5-fluoropyridin-4-yl)oxy)azetidin-1-yl)(5-(2-methylthiazol-5-yl)-4,5-dihydro-1H-pyrazol-1-yl)methanone] fall in the same range of EC50: 0.1 to 100 nM for the first, 0.1 to 100 nM for the second.

`Cc1nn(-c2cc(OC3CN(C(=O)C4=NNCC4c4cc(F)cc(F)c4)C3)c(F)cn2)c(C)c1C(N)=O` (stereo not drawn) [Compound 162, 1-(4-((1-(4-(3,5-difluorophenyl)-4,5-dihydro-1H-pyrazole-3-carbonyl)azetidin-3-yl)oxy)-5-fluoropyridin-2-yl)-3,5-dimethyl-1H-pyrazole-4-carb oxamide] and `Cc1cnn(C)c1-c1cc(OC2CN(C(=O)C3=NNCC3c3cc(F)cc(F)c3)C2)c(F)cn1` (stereo not drawn) [Compound 161, (4-(3,5-difluorophenyl)-4,5-dihydro-1H-pyrazol-3-yl)(3-((2-(1,4-dimethyl-1H-pyrazol-5-yl)-5-fluoropyridin-4-yl)oxy)azetidin-1-yl)methanone] fall in the same range of EC50: 0.1 to 100 nM for the first, 0.1 to 100 nM for the second.

`Cc1cnn(C)c1-c1cc(OC2CN(C(=O)N3N=CCC3c3cncs3)C2)c(F)cn1` (stereo not drawn) [Compound 91, (3-((2-(1,4-dimethyl-1H-pyrazol-5-yl)-5-fluoropyridin-4-yl)oxy)azetidin-1-yl)(5-(thiazol-5-yl)-4,5-dihydro-1H-pyrazol-1-yl)methanone] and `Cc1cnn(C)c1-c1cc(OC2CN(C(=O)N3N=CCC3c3cccnc3)C2)c(F)cn1` (stereo not drawn) [Compound 99, (3-((2-(1,4-dimethyl-1H-pyrazol-5-yl)-5-fluoropyridin-4-yl)oxy)azetidin-1-yl)(5-(pyridin-3-yl)-4,5-dihydro-1H-pyrazol-1-yl)methanone] fall in the same range of EC50: 0.1 to 100 nM for the first, 0.1 to 100 nM for the second.

`Cn1nccc1-c1ncc(F)c(OC2CN(C(=O)N3N=CC[C@H]3c3cncc(F)c3)C2)n1` [Compound 2, (S)-(3-((5-fluoro-2-(1-methyl-1H-pyrazol-5-yl)pyrimidin-4-yl)oxy)azetidin-1-yl)(5-(5-fluoropyridin-3-yl)-4,5-dihydro-1H-pyrazol-1-yl)methanone] and `CCn1nccc1-c1cc(OC2CN(C(=O)N3N=CC[C@H]3c3cncc(F)c3)C2)c(F)cn1` [Compound 28, (S)-(3-((2-(1-ethyl-1H-pyrazol-5-yl)-5-fluoropyridin-4-yl)oxy)azetidin-1-yl)(5-(5-fluoropyridin-3-yl)-4,5-dihydro-1H-pyrazol-1-yl)methanone] fall in the same range of EC50: 0.1 to 100 nM for the first, 0.1 to 100 nM for the second.

`Cc1c(Cl)nn(C)c1-c1cc(OC2CN(C(=O)N3N=CC[C@H]3c3cc(F)cc(C#N)c3)C2)c(F)cn1` [Compound 50, (S)-3-(1-(3-((2-(3-chloro-1,4-dimethyl-1H-pyrazol-5-yl)-5-fluoropyridin-4-yl)oxy)azetidine-1-carbonyl)-4,5-dihydro-1H-pyrazol-5-yl)-5-fluoro benzonitrile] and `Cc1nn(-c2cc(OC3CN(C(=O)N4N=CC[C@H]4c4cc(F)cc(C#N)c4)C3)c(F)cn2)c(C)c1C(=O)NC1COC1` [Compound 85, (S)-1-(4-((1-(5-(3-cyano-5-fluorophenyl)-4,5-dihydro-1H-pyrazole-1-carbonyl)azetidin-3-yl)oxy)-5-fluoropyridin-2-yl)-3,5-dimethyl-N-(oxetan-3-yl)-1H-pyrazole-4-carboxamide] fall in the same range of EC50: 0.1 to 100 nM for the first, 0.1 to 100 nM for the second.

`Cc1cc[nH]c(=O)c1-c1cc(OC2CN(C(=O)N3N=CC[C@H]3c3cc(F)cc(F)c3)C2)c(F)cn1` [Compound 166, (S)-4-((1-(5-(3,5-difluorophenyl)-4,5-dihydro-11H-pyrazole-1-carbonyl)azetidin-3-yl)oxy)-5-fluoro-4′-methyl-[2,3′-bipyridin]-2′(1′H)-one] and `COc1nccc(C)c1-c1cc(OC2CN(C(=O)N3N=CC[C@H]3c3cc(F)cc(F)c3)C2)c(F)cn1` [Compound 165, (S)-(5-(3,5-difluorophenyl)-4,5-dihydro-1H-pyrazol-1-yl)(3-((5-fluoro-2′-methoxy-4′-methyl-[2,3′-bipyridin]-4-yl)oxy)azetidin-1-yl)methanone] fall in the same range of EC50: 100 to 1000 nM for the first, 100 to 1000 nM for the second.

`Cc1nc(C2CC=NN2C(=O)N2CC(Oc3cc(-c4c(C)cnn4C)c(F)cc3F)C2)cs1` (stereo not drawn) [Compound 131, (3-(5-(1,4-dimethyl-1H-pyrazol-5-yl)-2,4-difluorophenoxy)azetidin-1-yl)(5-(2-methylthiazol-4-yl)-4,5-dihydro-1H-pyrazol-1-yl)methanone] showed an EC50 of 0.1 to 100 nM.
